Experimental data: patent publication US9707267B2, “Beta-turn peptidomimetic cyclic compounds for treating dry eye” (Mimetogen Pharmaceuticals, Inc., priority 2008, dated 2017)
Several values for one entry are separate records, joined by “and”; a condition that tells them apart may be missing. Equal values may be shown once.

Tests used:
[1] = test system: rat conjunctival goblet cells; assay: Glycoconjugate secretion from rat conjunctival goblet cells, ELLA (Example 1); assay type: cell-based; conditions: 2 hours, mean±sem
Method: Cells derived from the explants were grown in RPMI 1640 supplemented with 10% fetal bovine serum (FBS) and penicillin (100 U/mL)/streptomycin (100 μg/mL) at 37° C. in a humidified 5% CO2-atmosphere for seventy-two hours. Contaminating nongoblet cells were removed by scraping them from the plate. During this time, goblet cells migrated from the pieces and began to proliferate. After one week, the goblet cells were trypsinized and plated in twenty-four well culture plates with RPMI-1640 media supplemented with 10% FBS.
To measure glycoconjugate secretion, the conjunctival goblet cells were grown to confluence and were serum deprived for two hours before addition of nerve growth factor (NGF), carbachol (Cch), compound D3, compound 3Aa and compound 3Ak for two hours. Compounds D3, 3Aa and 3Ak were administered at concentrations of 30 μm (micromolar), 10 μM, 1 μM and 0.3 μM. The vehicle used to dissolve the compounds, dimethyl sulfoxide (DMSO) was also included. DMSO was used as the basal control for the 30 μM concentration of compound, which was at 0.1% (v/v). The cholinergic agonist carbachol (Cch), added at 100 μM (micromolar), was a positive control for glycoconjugate secretion. The amount of glycoconjugate secreted into the media was measured by enzyme-linked lectin assay (ELLA). The media were collected and analyzed for amount of the lectin-detectable glycoconjugates, including mucins. The amount of secretion was measured by using the lectin UEA-I which is specific for rat conjunctival goblet cell mucins. Biotinylated UEA-I lectin and alkaline phosphatase-labeled streptavidin were used as described in Rios, J. D., et al., “Role of Neurotrophins and Neurotrophin Receptors in Rat Conjunctival Goblet Cell Secretion and Proliferation, Ophthalmology & Visual Science, 48: 1543-1551 (2007), the entire content of which is incorporated herein by reference. The cells were removed and sonicated, and the cell homogenate was analyzed for the total amount of protein by using the Bradford protein assay. […] Glycoconjugate secretion was expressed as the increase (x-fold) over basal.
Data for CGC glycoconjugate secretion and proliferation were expressed as the increase (x-fold) above basal value, which was standardized to 1.0. For example, for the 0.3 μM (micromolar), 1 μM and 10 μM doses, the CGC glycoconjugate secretion and proliferation were expressed as test compound over untreated cells. For the 30 μM dose, the CGC glycoconjugate secretion and proliferation were expressed as test compound over DMSO untreated cells. Results are expressed as the mean±sem.

[2] = test system: Scopolamine Induced Rat Dry Eye Model; assay: Scopolamine induced rat dry eye model, Schirmer test (Example 5); assay type: in vivo; conditions: ± SD
Method: Dry eye was induced using scopolamine hydrobromide (Sigma-Aldrich, St. Louis, Mo.), which was continuously and systemically delivered to the animals via an osmotic pump (2ML4 Alzet®; CedarLane, Burlington, Ontario) filled with scopolamine and implanted subcutaneously in the mid dorsal area between the scapulae. Scopolamine was delivered for a twenty-eight day period at 12.5 mg/day, which translated to 30.0±1.5 mg/kg via osmotic pump.
Treatments for G2-G6 continued daily for seventeen days (up to an including day twenty-one). Thereafter, treatments were terminated but the study continued for another week. During treatment, each animal was anesthetized in an isoflurane chamber. Once asleep, each animal received a 5 μL topical instillation of test article into the lower conjunctival sac of both eyes using a calibrated micropipette. If a clinical endpoint was also being tested, the test article was topically instilled at the end of the testing.
Tear production was monitored using the Schirmer test on days 5, 7, 14, 20 and 29 post induction of dry eye. Tear production was measured with Zone-Quick standardized phenol-red threads (FCI Ophthalmics, Marshfield Hills, Mass.) on animals lightly sedated with Isoflurane. The threads were inserted in the lateral lower canthus and left in place for thirty seconds. The length of the stained moistened portion of the thread was measured in millimeters, using the scale provided with the threads to an accuracy of 1 mm.

[3] = test system: Scopolamine Induced Rat Dry Eye Model; assay: as above; assay type: in vivo; conditions: ± SD; remark: listed apart in the source

NCCCC[C@@H]1NC(=O)[C@H](CCC(=O)O)NC(=O)c2cc([N+](=O)[O-])ccc2OCCC(C(=O)NCC(=O)O)NC1=O (stereo partly drawn) [Compound D3]
CGC glycoconjugate secretion ([1]; 0.3 μM): 1.3±0.2 fold above basal
CGC glycoconjugate secretion ([1]; 1 μM): 1.6±0.2 fold above basal
CGC glycoconjugate secretion ([1]; 10 μM): 1.6±0.3 fold above basal
CGC glycoconjugate secretion ([1]; 30 μM, over DMSO basal): 1.7±0.7 fold above basal
Schirmer's Test ([2]; 1.0% topical 1× daily Days 5-21, Day 20): 6.8 ± 0.8 mm
Schirmer's Test ([2]; 2.5% topical 1× daily Days 5-21, Day 7): 9.1 ± 1.9 mm
Schirmer's Test ([2]; 2.5% topical 1× daily Days 5-21, Day 14): 9.4 ± 1.4 mm
Schirmer's Test ([3]; 0.4% group, Day 2, before treatment start (day 5)): 9.6 ± 3.0 mm
Schirmer's Test ([3]; 0.4% group, Day −1, presurgical, before treatment start (day 5)): 11.9 ± 4.4 mm and 11.9 ± 4.2 mm
Schirmer's Test ([3]; 0.4% topical 1× daily Days 5-21, Day 5 (test before first instillation)): 7.9 ± 3.2 mm
Schirmer's Test ([3]; 0.4% topical 1× daily Days 5-21, Day 7): 7.9 ± 1.6 mm
Schirmer's Test ([3]; 0.4% topical 1× daily Days 5-21, Day 14): 8.6 ± 3.0 mm
Schirmer's Test ([3]; 0.4% topical 1× daily Days 5-21, Day 20): 7.2 ± 1.8 mm
Schirmer's Test ([3]; 0.4% topical 1× daily Days 5-21, Day 29 (after treatment stopped)): 9.4 ± 2.0 mm
Schirmer's Test ([3]; 1.0% group, Day 2, before treatment start (day 5)): 9.8 ± 4.0 mm and 9.8 ± 3.8 mm
Schirmer's Test ([3]; 1.0% group, Day −1, presurgical, before treatment start (day 5)): 11.3 ± 4.5 mm and 11.3 ± 3.0 mm
Schirmer's Test ([3]; 1.0% topical 1× daily Days 5-21, Day 5 (test before first instillation)): 7.9 ± 2.3 mm
Schirmer's Test ([3]; 1.0% topical 1× daily Days 5-21, Day 7): 9.5 ± 4.2 mm
Schirmer's Test ([3]; 1.0% topical 1× daily Days 5-21, Day 14): 7.3 ± 2.3 mm
Schirmer's Test ([3]; 1.0% topical 1× daily Days 5-21, Day 29 (after treatment stopped)): 9.0 ± 2.9 mm
Schirmer's Test ([3]; 2.5% group, Day 2, before treatment start (day 5)): 9.8 ± 2.4 mm
Schirmer's Test ([3]; 2.5% group, Day −1, presurgical, before treatment start (day 5)): 11.5 ± 2.2 mm and 11.5 ± 1.8 mm
Schirmer's Test ([3]; 2.5% topical 1× daily Days 5-21, Day 5 (test before first instillation)): 9.6 ± 1.8 mm
Schirmer's Test ([3]; 2.5% topical 1× daily Days 5-21, Day 20): 9.1 ± 2.3 mm
Schirmer's Test ([3]; 2.5% topical 1× daily Days 5-21, Day 29 (after treatment stopped)): 7.7 ± 1.6 mm

NGF: nerve growth factor (recombinant human), positive control
CGC glycoconjugate secretion ([1]; NGF, concentration not given): 1.3±0.1 fold above basal
Schirmer's Test ([2]; 0.00053% topical 1× daily Days 5-21, Day 5 (test before first instillation)): 9.2 ± 2.5 mm
Schirmer's Test ([2]; 0.00053% topical 1× daily Days 5-21, Day 7): 7.8 ± 1.4 mm
Schirmer's Test ([2]; 0.00053% topical 1× daily Days 5-21, Day 14): 8.6 ± 2.1 mm
Schirmer's Test ([2]; 0.00053% topical 1× daily Days 5-21, Day 29 (after treatment stopped)): 7.5 ± 2.5 mm
Schirmer's Test ([3]; 0.00053% group, Day 2, before treatment start (day 5)): 9.9 ± 4.9 mm and 9.9 ± 4.8 mm
Schirmer's Test ([3]; 0.00053% group, Day −1, presurgical, before treatment start (day 5)): 11.2 ± 3.7 mm and 11.2 ± 3.2 mm
Schirmer's Test ([3]; 0.00053% topical 1× daily Days 5-21, Day 20): 7.1 ± 2.4 mm
